Test results as given in PMC10515590 (ACS Omega, 2023).
In brackets after ≈: the same amount, converted by molar mass. Where two headings read alike, the source gives them in different places.

Key:
[1] = cited from earlier work
[2] = Pharmacokinetic study after oral administration; format: in vivo, BALB/c mice; conditions: female, BALB/c, mouse, plasma, 30 mg/kg
[3] = Shake flask solubility in pH 6.8 phosphate buffer; format: physicochemical
[4] = Powder dissolution, USP apparatus II; format: physicochemical; conditions: pH 6.8
[5] = after oral administration; cited from earlier work
[6] = first pKa, 24 for cocrystal coformers

O=C(O)c1ccc(O)cc1O [2,4-dihydroxybenzoic acid]
pKa ([1]; second pKa, ref 24 for 2,4-dihydroxybenzoic acid): 8.5

O=C(O)c1c(O)cccc1O [2,6-dihydroxybenzoic acid]
log P ([1]; coformers): 2.14

Oc1ncnc2[nH]ncc12 [ALO, 1H-pyrazolo[3,4-d]pyrimidine-4(2H)-one]
AUC(0-t) [2]: 36900 ng·h/mL
Cmax [2]: 7010 ± 187 ng/mL
aqueous solubility [1]: 0.8 mg/mL (≈ 5.88 mM)
pKa [1, 6]: 10.1
solubility at 4 h [3]: 0.687 mg/mL (≈ 5.05 mM)
solubility at 1 h [4]: 0.676 mg/mL (≈ 4.97 mM)
time within which the drug is metabolized [5]: ≤ 2 h

O=C(O)CCCC(=O)O [glutaric acid]
solubility of coformer ([1]; highly soluble coformers): 1600 mg/mL

O=C(O)c1ccnc(C(=O)O)c1 [pyridine 2,4-dicarboxylic acid]
pKa [1, 6]: 2.15
